This passage reports IC50, Activity and MIC results from ChEMBL document CHEMBL3621085, “Tetrazole regioisomers in the development of nitro group-containing antitubercular agents” (Medchemcomm, 2015).

Values after ≈ are worked out from the molar mass of the structure shown. Active and inactive are the calls of the source. No cut-off for these calls is given here.

One data set concerns the target T1, Heme oxygenase 1 (Homo sapiens, UniProt P09601).
T1 sequence (P09601 whole entry): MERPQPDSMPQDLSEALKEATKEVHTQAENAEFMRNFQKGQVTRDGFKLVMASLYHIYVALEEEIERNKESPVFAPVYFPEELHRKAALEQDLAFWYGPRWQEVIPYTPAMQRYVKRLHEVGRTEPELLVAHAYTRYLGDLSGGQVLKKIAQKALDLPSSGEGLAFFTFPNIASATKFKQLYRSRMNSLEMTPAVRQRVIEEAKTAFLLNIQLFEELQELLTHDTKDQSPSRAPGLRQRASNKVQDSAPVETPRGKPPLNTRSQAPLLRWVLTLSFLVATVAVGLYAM
As to the kind of experiment: Inhibition of heme oxygenase-1 (unknown origin).

For another data set, the system named is Lichtheimia corymbifera. As to the kind of experiment: Antifungal activity against Absidia corymbifera 272 after 24 to 48 hrs by broth micro dilution method. In kind it is functional, organism-based.
Data set [1] deals with Mycobacterium kansasii. As to the kind of experiment: Antimycobacterial activity against Mycobacterium kansasii My 235/80 after 14 days by micromethod. The class given is functional. The following applies: My 235/80, 336 h.
The next data set has as its system Nakaseomyces glabratus. As to the kind of experiment: Antifungal activity against Candida glabrata 20/I after 24 to 48 hrs by broth micro dilution method. In kind it is functional, organism-based.
The subject of another data set is Escherichia coli. As to the kind of experiment: Antibacterial activity against Escherichia coli ATCC 8739 after 24 to 48 hrs by broth micro dilution method. The class given is functional, organism-based.
Data set [2] relates to Klebsiella pneumoniae. Kind of data set: Antibacterial activity against Klebsiella pneumoniae J 14368/08 after 24 to 48 hrs by broth micro dilution method. In kind it is functional, organism-based.
Data set [3] deals with Mycobacterium kansasii. As to the kind of experiment: Antimycobacterial activity against Mycobacterium kansasii My 235/80 after 7 days by micromethod. The class given is functional. The following applies: My 235/80, 168 h.
The subject of data set [4] is Mycobacterium avium. As to the kind of experiment: Antimycobacterial activity against Mycobacterium avium My 330/88 after 21 days by micromethod. In kind it is functional. As to conditions: My 330/88, 504 h.
The subject of data set [5] is Staphylococcus aureus. Kind of data set: Antibacterial activity against methicillin-resistant Staphylococcus aureus H 5996/08 after 24 to 48 hrs by broth micro dilution method. In kind it is functional, organism-based.
Data set [6] deals with Mycobacterium tuberculosis. Kind of data set: Antimycobacterial activity against Mycobacterium tuberculosis My 331/88 after 14 days by micromethod. The class given is functional. The following applies: My 331/88, 336 h.
Data set [7] concerns Mycobacterium tuberculosis. As to the kind of experiment: Antimycobacterial activity against Mycobacterium tuberculosis My 331/88 after 21 days by micromethod. The following applies: My 331/88, 504 h. In kind it is functional.
The subject of data set [8] is Staphylococcus aureus. As to the kind of experiment: Antibacterial activity against Staphylococcus aureus ATCC 6538 after 24 to 48 hrs by broth micro dilution method. The class given is functional, organism-based.
Data set [9] is described as follows: Cytotoxicity against CHOK1 cells assessed as viability after 24 hrs by MTT assay. In kind it is cell-based. The following applies: Cricetulus griseus, CHO-K1, 24 h.
The next data set has as its system Pseudomonas aeruginosa. Kind of data set: Antibacterial activity against Pseudomonas aeruginosa ATCC 9027 after 24 to 48 hrs by broth micro dilution method. The class given is functional, organism-based.
Data set [10] has as its system Salmonella typhimurium. Kind of data set: Mutagenic activity in Salmonella typhimurium TA100 assessed as induction of reverse mutation at 50 uM. The class given is toxicity, organism-based. The following applies: salmonella enterica subsp. enterica serovar typhimurium.
A further data set concerns Candida tropicalis. As to the kind of experiment: Antifungal activity against Candida tropicalis 156 after 24 to 48 hrs by broth micro dilution method. The class given is functional, organism-based.
In a further data set the test system is Pichia kudriavzevii. Kind of data set: Antifungal activity against Candida krusei E28 after 24 to 48 hrs by broth micro dilution method. In kind it is functional, organism-based.
In another data set the test system is Aspergillus fumigatus. As to the kind of experiment: Antifungal activity against Aspergillus fumigatus 2318 after 24 to 48 hrs by broth micro dilution method. The class given is functional, organism-based.
The test system of data set [11] is Mycobacterium kansasii. As to the kind of experiment: Antimycobacterial activity against Mycobacterium kansasii My 235/80 after 21 days by micromethod. In kind it is functional. As to conditions: My 235/80, 504 h.
Data set [12] deals with Klebsiella pneumoniae. Kind of data set: Antibacterial activity against Klebsiella pneumoniae D 11750/08 after 24 to 48 hrs by broth micro dilution method. The class given is functional, organism-based.
Another data set relates to Enterococcus faecalis. As to the kind of experiment: Antibacterial activity against Enterococcus faecalis J 14365/08 after 24 to 48 hrs by broth micro dilution method. The class given is functional, organism-based.
The next data set deals with Trichosporon asahii. Kind of data set: Antifungal activity against Trichosporon asahii 1188 after 24 to 48 hrs by broth micro dilution method. In kind it is functional, organism-based.
Data set [13] deals with Salmonella typhimurium. As to the kind of experiment: Mutagenic activity in Salmonella typhimurium TA98 assessed as induction of reverse mutation at 50 uM. In kind it is toxicity, organism-based. The following applies: salmonella enterica subsp. enterica serovar typhimurium.
Data set [14] deals with Mycobacterium kansasii. As to the kind of experiment: Antimycobacterial activity against Mycobacterium kansasii 6509/96 after 7 days by micromethod. In kind it is functional. The following applies: 6509/96, 168 h.
For data set [15], the system named is Mycobacterium avium. Kind of data set: Antimycobacterial activity against Mycobacterium avium My 330/88 after 14 days by micromethod. As to conditions: My 330/88, 336 h. In kind it is functional.
The test system of data set [16] is Mycobacterium kansasii. As to the kind of experiment: Antimycobacterial activity against Mycobacterium kansasii 6509/96 after 21 days by micromethod. As to conditions: 6509/96, 504 h. The class given is functional.
The subject of data set [17] is Mycobacterium kansasii. Kind of data set: Antimycobacterial activity against Mycobacterium kansasii 6509/96 after 14 days by micromethod. In kind it is functional. As to conditions: 6509/96, 336 h.
In data set [18] the test system is Staphylococcus epidermidis. Kind of data set: Antibacterial activity against Staphylococcus epidermidis H 6966/08 after 24 to 48 hrs by broth micro dilution method. In kind it is functional, organism-based.
For a further data set, the system named is Candida albicans. As to the kind of experiment: Antifungal activity against Candida albicans ATCC 44859 after 24 to 48 hrs by broth micro dilution method. The class given is functional, organism-based.
The test system of data set [19] is Klebsiella pneumoniae. As to the kind of experiment: Antibacterial activity against ESBL positive Klebsiella pneumoniae J 14368/08 after 24 to 48 hrs by broth micro dilution method. In kind it is functional, organism-based.
For data set [20], the system named is Trichophyton mentagrophytes. As to the kind of experiment: Antifungal activity against Trichophyton mentagrophytes 445 after 72 to 120 hrs by broth micro dilution method. The class given is functional, organism-based.

For orientation: IC50 means the midpoint of a concentration-inhibition curve. The compound `O=C(CCc1ccccc1)Cn1cnnn1` returned an IC50 on Heme oxygenase 1 of 2.6 µM.
As a reminder, the MIC is the least concentration at which growth counts as inhibited. As for `O=[N+]([O-])c1cc(CSc2nnnn2Cc2ccccc2)cc([N+](=O)[O-])c1`, the result with Lichtheimia corymbifera, with Nakaseomyces glabratus, in the data set on Escherichia coli, in the data set on Klebsiella pneumoniae [2], in the data set with Staphylococcus aureus [5] and with Staphylococcus aureus [8] was inactive. Also, the result in the data set with Pseudomonas aeruginosa, in the data set with Candida tropicalis, with Pichia kudriavzevii, in the data set with Aspergillus fumigatus, in the data set on Klebsiella pneumoniae [12] and with Enterococcus faecalis was inactive. For the same compound, the outcome (in the data set with Trichosporon asahii; in data set [18]; with Candida albicans; in the data set on Klebsiella pneumoniae [19]; in [20]) was inactive. For the same compound, the MIC with Mycobacterium kansasii [1] was 8 µM (≈ 2.98 µg/mL); with Mycobacterium kansasii [3], 2 µM (≈ 0.745 µg/mL); in the data set with Mycobacterium avium [4], 250 µM (≈ 93.1 µg/mL); in [6] it was 1 µM (≈ 0.372 µg/mL); in data set [7], 2 µM (≈ 0.745 µg/mL); in the data set on Mycobacterium kansasii [11], 8 µM (≈ 2.98 µg/mL). Besides, the MIC in the data set with Mycobacterium kansasii [14] is 2 µM (≈ 0.745 µg/mL); with Mycobacterium avium [15] it was 250 µM (≈ 93.1 µg/mL); in the data set on Mycobacterium kansasii [16], 4 µM (≈ 1.49 µg/mL); in the data set with Mycobacterium kansasii [17] it was 4 µM (≈ 1.49 µg/mL). Also, the IC50 in [9] stood at 59 µM. Further, the Activity result in the data set on Salmonella typhimurium [10] and in the data set on Salmonella typhimurium [13] was “Non-toxic” in each case.
On to `O=[N+]([O-])c1cc(C[Se]c2nnnn2Cc2ccccc2)cc([N+](=O)[O-])c1`, for which the result with Lichtheimia corymbifera, in the data set on Nakaseomyces glabratus, with Escherichia coli, in the data set on Klebsiella pneumoniae [2], with Staphylococcus aureus [5] and with Staphylococcus aureus [8] was inactive. Further, the outcome in the data set on Pseudomonas aeruginosa, with Candida tropicalis, in the data set on Pichia kudriavzevii, in the data set on Aspergillus fumigatus, with Klebsiella pneumoniae [12] and with Enterococcus faecalis was inactive. Besides, the result (with Trichosporon asahii; in data set [18]; in the data set with Candida albicans; in the data set with Klebsiella pneumoniae [19]; in data set [20]) was inactive. Further, the MIC with Mycobacterium kansasii [1] came out at 4 µM (≈ 1.68 µg/mL); in the data set with Mycobacterium kansasii [3], 2 µM (≈ 0.839 µg/mL); in the data set with Mycobacterium avium [4], 32 µM (≈ 13.4 µg/mL); in data set [6] it was 1 µM (≈ 0.419 µg/mL); in data set [7], 2 µM (≈ 0.839 µg/mL); in the data set on Mycobacterium kansasii [11], 4 µM (≈ 1.68 µg/mL). Further, the MIC in the data set on Mycobacterium kansasii [14] was 4 µM (≈ 1.68 µg/mL); in the data set on Mycobacterium avium [15], 32 µM (≈ 13.4 µg/mL); in the data set with Mycobacterium kansasii [16], 8 µM (≈ 3.35 µg/mL); in the data set on Mycobacterium kansasii [17] it was 8 µM (≈ 3.35 µg/mL). In [9], the IC50 was 71 µM. Besides, the Activity result in the data set with Salmonella typhimurium [10] and in the data set on Salmonella typhimurium [13] was “Toxic” each time.
